The Kd is the constant that tells how readily two partners part at equilibrium. What is called IC50 is the point on the concentration scale where inhibition reaches its midpoint. A lower IC50 goes with inhibition by little substance.

This is an account of results in paper PMC2568900 (Biochemistry, 2008).

Structures are written as SMILES. “Also recorded” adds a separate entry of the source. Where only a bound is given, the exact number is not on record here.

Experiment [1] deals with T1, PDHK2-Y320F (Rattus norvegicus, UniProt Q64536, Y328F). Kind of experiment: ATP, ADP and DCA binding by quenching of intrinsic tryptophan fluorescence. As to conditions: for Qmax: quenching caused by the varied ligand.
The target in the next experiment is PDHK2-wt (Rattus norvegicus, UniProt Q64536). The experiment is described as above.
Experiment [2] deals with L2 binding to PDHK2-N247Q (Rattus norvegicus, UniProt Q64536, N255Q). Kind of experiment: GST-L2 pull-down. As to conditions: PDHK2-N247Q (cannot bind nucleotides); nucleotides 10 mM each.
In another experiment the test system is PDHK2-Y320F bound to L2. Kind of experiment: GST-L2 pull-down. The format is binding, rat. As to conditions: for effect on amount of kinase bound to L2: nucleotide 0.5 mM.
Experiment [3] concerns the target T2, PDHK2-T302A (Rattus norvegicus, UniProt Q64536, T310A). Briefly: Isothermal titration calorimetry of L2 binding. The note with it: ITC, 10 mM ATP. (In general: In ITC the heat of successive injections is recorded.)
For the next experiment, the target named is PDHK2-R250A (Rattus norvegicus, UniProt Q64536, R258A). Kind of experiment: ATP, ADP and DCA binding by quenching of intrinsic tryptophan fluorescence.
The target of experiment [4] is T2, PDHK2-T302A. The description is as above.
The target in experiment [5] is T1, PDHK2-Y320F. Kind of experiment: Kinase activity assay. The format is biochemical. The note with it: standard phosphorylation assay.
The target in experiment [6] is T3, wild-type PDHK2 (Rattus norvegicus, UniProt Q64536). Kind of experiment: biochemical.
The target of experiment [7] is T3, wild-type PDHK2. The note with it: control, wide range of concentrations.
The mark [8] stands for this setting: PDHK2-wt, fixed ligand DCA (0.5 mM).
The mark [9] stands for this setting: PDHK2-wt, no fixed ligand, 25 °C.

`Nc1ncnc2c1ncn2[C@@H]1O[C@H](COP(=O)(O)OP(=O)(O)O)[C@@H](O)[C@H]1O` [ADP]: the “increase in affinity for ADP by DCA (factor)” value at PDHK2-Y320F [1] (0.5 mM DCA) is on record as 3.5. The Kd at PDHK2-Y320F [1] (fixed ligand DCA (0.5 mM)) was 2.5 ± 0.2 µM; at PDHK2-Y320F [1] (no fixed ligand, 25 °C) it was 8.9 ± 0.1 µM; at PDHK2-wt (setting [8]), 2 ± 0.1 µM; at PDHK2-wt (setting [9]), 10.6 ± 0.5 µM. For the same compound, the figures for the nH at PDHK2-Y320F [1] (fixed ligand DCA (0.5 mM)) and at PDHK2-wt (setting [8]) were 1.9 ± 0.1 and 2.2 ± 0.1, respectively. In addition, the Qmax at PDHK2-Y320F [1] (fixed ligand DCA (0.5 mM)) was found to be 37 ± 1%; at PDHK2-wt (PDHK2-wt, fixed ligand DCA (0.5 mM), quenching caused by the varied ligand), 39 ± 1%. Besides, the “Qmax (extrapolated maximal quenching)” value is 24 ± 1% on PDHK2-Y320F [1] (no fixed ligand) and 31 ± 1% on PDHK2-wt (PDHK2-wt, no fixed ligand). Besides, the “nH (Hill coefficient)” value on PDHK2-Y320F [1] (no fixed ligand) was 1.4 ± 0.1; on PDHK2-wt (PDHK2-wt, no fixed ligand) it was 1.5 ± 0.2. Moreover, at PDHK2-wt (wild-type PDHK2, 0.5 mM DCA), the “increase in affinity for ADP in the presence of DCA” value is given as “approximately 5 times”. For the same compound, the “effect on L2 binding” value in [2] is “did not exert any nonspecific effects”. Besides, the “effect on amount of kinase bound to L2” value with PDHK2-Y320F bound to L2 is reported as “significant decrease”.

For `Nc1ncnc2c1ncn2[C@@H]1O[C@H](COP(=O)(O)OP(=O)(O)OP(=O)(O)O)[C@@H](O)[C@H]1O` [ATP], the “Qmax (extrapolated maximal quenching)” value on PDHK2-Y320F [1] (no fixed ligand) is listed as 32 ± 1%; on PDHK2-R250A (no fixed ligand), 29 ± 1%; at PDHK2-wt (PDHK2-wt, no fixed ligand), 37 ± 1%; on PDHK2-T302A [4] (no fixed ligand), 23 ± 1%. The “nH (Hill coefficient)” value at PDHK2-Y320F [1] (no fixed ligand) was determined as 2.4 ± 0.1; at PDHK2-R250A (no fixed ligand), 1.0 ± 0.1; on PDHK2-wt (PDHK2-wt, no fixed ligand), 1.9 ± 0.1; on PDHK2-T302A [4] (no fixed ligand), 1.5 ± 0.1. Further, the Kd was found to be 1.7 ± 0.1 µM at PDHK2-Y320F [1] (no fixed ligand, 25 °C); 80 ± 1 µM at PDHK2-R250A (no fixed ligand, 25 °C); 2.5 ± 0.4 µM on PDHK2-wt (setting [9]); 60 ± 1 µM at PDHK2-T302A [4] (no fixed ligand, 25 °C). Further, the “effect on L2 binding” value on PDHK2-T302A [3] is on record as “little, if any, effect”; in experiment [2], “did not exert any nonspecific effects”. For the same compound, the “decrease in affinity relative to wild-type PDHK2” value at PDHK2-R250A is on record as more than 30 fold; on PDHK2-T302A [4], “more than 20 fold”. In addition, in the experiment on PDHK2-Y320F bound to L2, the “effect on amount of kinase bound to L2” value is “significant decrease”.

As to `O=C(O)C(Cl)Cl` [DCA, dichloroacetate], the Kd on PDHK2-Y320F [1] (Kd, fixed ligand ADP (50 μM)) came to 33 ± 1 µM; on PDHK2-Y320F [1] (Kd, no fixed ligand, 25 °C) it was 292 ± 10 µM; at PDHK2-R250A (Kd, fixed ligand ADP (50 μM)) it was 161 ± 4 µM; at PDHK2-R250A (Kd, fixed ligand ADP (500 μM)), 59 ± 1 µM; at PDHK2-R250A (Kd, no fixed ligand, 25 °C), 312 ± 25 µM; on PDHK2-wt (Kd, PDHK2-wt, no fixed ligand, 25 °C) it was 226 ± 7 µM. In addition, the Kd was 249 ± 9 µM on PDHK2-T302A [4] (Kd, fixed ligand ADP (50 μM)); 103 ± 1 µM on PDHK2-T302A [4] (Kd, fixed ligand ADP (500 μM)); 320 ± 20 µM on PDHK2-T302A [4] (Kd, no fixed ligand, 25 °C). Further, on PDHK2-Y320F [1] (fixed ligand ADP (50 μM)), the Qmax is on record as 29 ± 1%. The “effect on L2 binding, added alone” value with PDHK2-Y320F bound to L2 (DCA 1 mM alone) is reported as “little, if any, influence”. Also, in the experiment on PDHK2-Y320F bound to L2 (DCA 1 mM with 0.5 mM ATP or ADP), the “effect on L2 binding, in combination with ATP or ADP” value is “potentiated the effects of adenine nucleotides”. The “effect on kinase activity” value at PDHK2-Y320F [5] was “neither of the mutant kinases displayed an effect of DCA that would significantly exceed that of sodium acetate; also recorded: did not display an appreciable inhibitory effect; also recorded: no appreciable effect”. This compound also came in with an IC50 on wild-type PDHK2 [6] of approximately 690 µM.

Regarding `CC(=O)[O-].[Na+]` [sodium acetate], the “effect on kinase activity” value on wild-type PDHK2 [7] was “slight decrease in PDHK2 activity”.
